Experimental data from patent US20240316055A1, “METHODS FOR TREATING LEIGH SYNDROME” (DBCC Research, LLC, priority 2023, published 2024).

What was measured:
ECHS1 knockdown larvae = assay: Fly larva experiment: buoyancy (float/sink); format: in vivo, Drosophila; details: multiple doses fed to larvae; untreated ECHS1 knockdown larvae 30% sank
Excerpt: To determine whether the Drosophila larvae experiment would be appropriate for further evaluation of compounds, the phenotype induced by ECHSI RNAi was identified. […] It was noted that when extracted from food and placed in 1X PBS, ECHS1 knockdown larvae were buoyant and sank only ˜30% of the time, while age-matched control larvae always sank at 100% frequency.
To test the ability of drug compounds to rescue these two ECHS1 knockdown phenotypes, the larvae were fed with fly food with various concentrations of 10 candidate drugs and first measured for larval size. During the 6 days prior to collection and phenotyping, larvae were raised in the drug food and exposed to drug continuously throughout development. […] Independently, losmapimod, talmapimod, ralimetinib, and neflamapimod were selected at multiple doses and fed to larvae and the population-wide float/sink proportions were assayed. In contrast to untreated ECHS1 knockdown larvae, where 30% sank, treatment with drug compounds nearly doubled the sinking proportions to 60%. Considering the effect of ECHSI on buoyancy in light of its enzymatic function catalyzing the second step of mitochondrial fatty acid beta-oxidation, decreased ECHS1 activity was expected to increase levels of non-metabolized lipid which would increase buoyancy. Thus, compounds were identified that suppressed both quantitative and nominal phenotypes, one of which appears to be directly relevant to the enzymatic function of ECHS1.

[1] = tested on: ECHS1 patient-derived fibroblasts; assay: Mitochondrial respiration assay (Seahorse); format: cell-based; details: 48 hours; for respiration: glucose or galactose conditions, 1, 5 or 10 μM
Excerpt: To assess the mechanism of action of hit compounds from the screens of previous Examples, which were based on rescue of viability after metabolic challenge, Seahorse assay was used to measure mitochondrial function in response to treatment at multiple concentrations. The Seahorse assay measures the following parameters: oxygen consumption; basal respiration rate; ATP-linked respiration; maximal respiration; reserve capacity; and ATP production rate. At baseline (no treatment), the ECHS1 patient-derived fibroblasts had lower respiration rates than the control fibroblasts in glucose culturing conditions (20% reduction) and in galactose culturing conditions (30% reduction).
ECHS1 patient-derived fibroblasts and age-matched and sex-matched control fibroblasts were initially grown in standard media (DMEM+2 mM glutamine+1 mM pyruvate) containing 10 mM glucose as the energy source. Cells were seeded into specialized 96-well plates at a density of 10,000 cells per well. One day after plating, cells were treated with the test compounds at the concentrations of 0, 1, 5, or 10 μM. Half of the samples were cultured in 10 mM glucose media in addition to the test compounds. The remaining half of the sample were cultured in 10 mM galactose media, which is a metabolic challenge, in addition to the test compound. Test compounds were incubated with cells for 48 hours. According to the standard Seahorse protocol, the following stressors were added to cells in sequential order: 2 μM oligomycin; 5 μM carbonyl cyanide-4-(trifluoromethoxy)phenylhydrazone (FCCP); 9 μM FCCP; 2 μM rotenone and 2 μM antimycin A. Data were normalized to cell number per well using a Hoechst stain for cell nuclei. Two rounds of experiments were conducted. The results were consistent between the two rounds.

ECHS1 Fibroblast cells = assay: Galactose potency screen (cell viability, DAPI nuclei count); format: cell-based; details: galactose potency screen, FIG. 2
Description: Galactose Screen: Compound library plates were obtained from Prestwick/Selleck and SPECS (7,591 compounds total, 27 compounds/plate/concentration at 1 μM and 10 μM, 384-well plates). ECHS1 Fibroblast cells were harvested at 95% confluent with trypsin and suspended in Dulbecco's Modified Eagle Medium (DMEM)+10% Fetal Bovine Serum (FBS). The suspension was centrifuged at 200x g for 5 min. The suspension was discarded and the pellet was resuspended in the 5.5 mM galactose medium (DMEM+10% FBS+5.5 mM galactose) and seeded at 750 cells/well (50 μL) into the compound wells (1 μM and 10 μM). For the positive control experiment, the cells were suspended in 5.5 mM galactose medium+5.5 mM glucose+0.01% DMSO and seeded at 750 cells/well (50 μL) into the blank wells. For the negative control experiment, the cells were suspended in the 5.5 mM galactose medium+0.01% DMSO and seeded at 750 cells/well (50 μL) into the blank wells. The seeded plates were incubated at 37° C. for 96 hours, then 15 μL/well of 16% paraformaldehyde solution was added to the plates and allowed to sit for 15 min to fix the cells. The plates were then washed 3x with 50 μL/well of phosphate-buffered saline (PBS). The cells were stained with […] of a solution of 4,6-diamidino-2-phenylindole dilactate (DAPI, Invitrogen) and left at room temperature for 1 hr. The plates were then washed 3x with 50 μL/well of PBS prior to imaging. Agilent BioTek EL406 Microplate Washer Dispenser was used for the cell fixation and staining protocol. The plates were imaged using GE InCell2200 Cell Analyzer using PerkinElmer Columbus software quantification protocol. The data was analyzed using Genedata, Vortex, and Abase software. A Z-score value of >2 was used for the Prestwick/Selleck compound library and >3 for the SPECS library (based on the negative control population) to determine hit selection.
ECHS1 Fibroblast cells were harvested at 70-80% confluent with trypsin and suspended in DMEM+10% FBS. The suspension was centrifuged at 200x g for 5 min. The suspension was discarded and the pellet was resuspended in the either the 5.5 mM galactose medium (DMEM+10% FBS+5.5 mM of galactose) or the 10 mM propionate medium (DMEM+10% FBS+10 mM sodium propionate). The cells were seeded at 750 cells/well (50 μL) into a 384-well plate containing the test compounds (3-fold serial dilution across 10 plates, starting at 10 uM). For the positive control experiment, the cells were suspended in either the 5.5 mM galactose medium or 10 mM propionate medium+5.5 mM glucose+0.01% DMSO and seeded at 750 cells/well (50 μL) into the blank wells. For the negative control experiment, the cells were suspended in the 5.5 mM galactose or 10 mM propionate medium +0.01% DMSO and seeded at 750 cells/well (50 μL) into the blank wells. The seeded plates were incubated at 37° C. for 96 hours, then 15 μL/well of 16% paraformaldehyde solution was added to the plates and allowed to sit for 15 min to fix the cells. The plates were then washed 3x with 50 μL/well of PBS. The cells were stained with 25 μL/well of a solution of DAPI and left at room temperature for 1 hr. The plates were then washed 3x with 50 μL/well of PBS prior to imaging. Agilent BioTek EL406 Microplate Washer Dispenser was used for the cell fixation and staining protocol. The plates were imaged using GE InCell2200 Cell Analyzer using PerkinElmer Columbus software quantification protocol. The data was analyzed using Genedata, Vortex, and Abase software. A Z-score value of >2 was used for both the Prestwick/Selleck and SPECS library (based on the negative control population) to determine hit selection.

SMILES	sinking proportions (ECHS1 knockdown larvae)	respiration [1]	concentration-dependent curves (ECHS1 Fibroblast cells)	ATP production rates [1]	increase in maximal respiration ([1]; glucose-treated cells, 10 μM)	maximal respiration ([1]; glucose-treated cells)
Cc1c(F)cc(C(=O)NC2CC2)cc1-c1ccc(C(=O)NCC(C)(C)C)cn1 [losmapimod, 6-[5-(cyclopropylcarbamoyl)-3-fluoro-2-methylphenyl]-N-(2,2-dimethylpropyl)pyridine-3-carboxamide]	60%	did not result in major changes	–	–	–	–
O=c1ncn2nc(Sc3ccc(F)cc3F)ccc2c1-c1c(Cl)cccc1Cl [neflamapimod, 5-(2,6-dichlorophenyl)-2-(2,4-difluorophenyl)sulfanylpyrimido[1,6-b]pyridazin-6-one]	60%	–	non-linear response	–	–	–
CC(C)(C)Cn1c(N)nc2ccc(-c3[nH]c(C(C)(C)C)nc3-c3ccc(F)cc3)nc21 [ralimetinib, 5-[2-tert-butyl-4-(4-fluorophenyl)-1H-imidazol-5-yl]-3-(2,2-dimethylpropyl)imidazo[4,5-b]pyridin-2-amine]	60%	did not result in major changes	non-linear response	–	–	–
C[C@@H]1CN(Cc2ccc(F)cc2)[C@@H](C)CN1C(=O)c1cc2c(C(=O)C(=O)N(C)C)cn(C)c2cc1Cl [talmapimod, 2-[6-chloro-5-[(2R,5S)-4-[(4-fluorophenyl)methyl]-2,5-dimethylpiperazine-1-carbonyl]-1-methylindol-3-yl]-N,N-dimethyl-2-oxoacetamide]	60%	–	non-linear response	no change	11%	dose-dependent increase
